The nature of data set [1]: Clearance in CD-1 mouse at 1 mg/kg, iv by LC-MS/MS analysis. The class given is ADME, organism-based. The conditions noted are these: in vivo.
A short description of data set [2]: AUC (0 to last) in CD-1 mouse at 5 mg/kg, po via gavage by LC-MS/MS analysis. The class given is ADME, organism-based. The conditions noted are these: in vivo.
Data set [3] is described as follows: Intrinsic clearance in human hepatocytes at 1 uM measured after 90 mins by LC-MS/MS analysis. Conditions: read-out: CLH. The class given is ADME, cell-based, Hepatocyte.
A short description of data set [4]: Protein binding in human plasma at 0.2 to 10 uM measured after 4 hrs by equilibrium dialysis based LC-MS/MS analysis. Conditions: dose 0.2-10 µM, read-out: PPB (converted). The format is ADME, cell-free.
The nature of data set [5]: Oral bioavailability in Sprague-Dawley rat at 30 mg/kg administered via gavage by LC-MS/MS analysis. The format is ADME, organism-based. Conditions: in vivo.
The nature of data set [6]: Half life in Beagle dog at 1 mg/kg, iv by LC-MS/MS analysis. The format is ADME, organism-based, Canis lupus familiaris. The conditions noted are these: in vivo.
The nature of data set [7]: AUC (0 to last) in Beagle dog at 1 mg/kg, iv by LC-MS/MS analysis. Conditions: in vivo. The format is ADME, organism-based, Canis lupus familiaris.
Data set [8] can be described thus: AUC (0 to last) in Beagle dog at 5 mg/kg, po by LC-MS/MS analysis. The class given is ADME, organism-based, Canis lupus familiaris. The conditions noted are these: in vivo.
A short description of data set [9]: Oral bioavailability in Beagle dog at 5 mg/kg via gavage by LC-MS/MS analysis. The format is ADME, organism-based, Canis lupus familiaris. The conditions noted are these: in vivo.
A short description of data set [10]: Toxicity in mouse H22 cell implanted BALB/c mouse assessed as change in body weight at 15 to 50 mg/kg, po administered twice daily for 11 days measured daily during compound dosing. The format is organism-based. Conditions: in vivo, 264 h, dose 15-50 mg/kg, time 11 day.
Data set [11] can be described thus: Tmax in mouse H22 cell implanted BALB/c mouse at 15 to 50 mg/kg, po administered twice daily for 11 days. The format is ADME, organism-based. Conditions: in vivo, dose 15-50 mg/kg, time 11 day.
The test system of data set [12] is Mus musculus. Description: In vivo inhibition of TGFbetaR1 in mouse H22 cell implanted BALB/c mouse assessed as reduction in Smad phosphorylation at 15 to 50 mg/kg, po administered twice daily for 11 days measured 1 to 12 hrs post-last dose by immunoblotting analysis. The class given is functional, organism-based. Conditions: dose lower […], dose upper 50.0 mg/kg, time 11.0 day.

For data set [13], the system named is 4T1-Luc. Put plainly: Antimetastatic activity against mouse 4T1-Luc cells implanted in BALB/c mouse assessed as reduction in metastatic rate in spleen at 100 mg/kg, po administered daily for 32 days and measured on day 30 to 35 by IVIS fluorescence analysis. The class given is functional, organism-based. The conditions noted are these: time 35.0 day.
In data set [14] the test system is CD14-positive cell. Put plainly: Immunostimulatory activity in human PBMC derived M-CSF stimulated CD14-positive cells assessed as effect on M2 macrophage polarization at 0.01 to 10 uM supplemented with fresh medium containing compound on day 1, 3 and 5 followed by M-CSF/IL-4/IL-13 stimulation. The class given is functional, cell-based. The conditions noted are these: dose 0.01-10 µM, time 5.0 day.

Data set [15] deals with CD14-positive cell. Description: Immunostimulatory activity in human PBMC derived M-CSF stimulated CD14-positive cells assessed as increase in TNFalpha level at 0.1 to 10 uM supplemented with fresh medium containing compound on day 1, 3 and 5 followed by M-CSF/IL-4/IL-13 stimulation for 2 days with subsequent LPS induction and measured after 16 hrs. The class given is functional, cell-based. Conditions: dose 0.1-10 µM, time 7.0 day.

Data set [16] has as its system CD14-positive cell. Put plainly: Immunostimulatory activity in human PBMC derived M-CSF stimulated CD14-positive cells assessed as increase in IL-6 level at 0.1 to 10 uM supplemented with fresh medium containing compound on day 1, 3 and 5 followed by M-CSF/IL-4/IL-13 stimulation for 2 days with subsequent LPS induction and measured after 16 hrs. The format is functional, cell-based. Conditions: dose 0.1-10 µM, time 7.0 day.

Data set [17] relates to HUVEC. Put plainly: Antiangiogenesis activity in HUVEC assessed as inhibition of vascular structure formation measured after 6 hrs by matrigel based inverted fluorescence microscopy. The class given is functional, cell-based. The conditions noted are these: Homo sapiens, dose 0.1-10 µM.
The nature of data set [18]: Drug metabolism in rat liver microsomes. The format is ADME, Microsome. For orientation: Microsomes from liver hold many membrane-bound enzymes, among them those of drug oxidation.
Data set [19] can be described thus: Drug metabolism in rat hepatocytes. The class given is ADME, cell-based, Hepatocyte.
The target in data set [20] is Activin receptor type-1B (Homo sapiens) (UniProt P36896). Put plainly: Inhibition of ALK4 (unknown origin) assessed as residual activity at 1 uM relative to control.
Activin receptor type-1B (Homo sapiens), sequence (P36896 whole entry): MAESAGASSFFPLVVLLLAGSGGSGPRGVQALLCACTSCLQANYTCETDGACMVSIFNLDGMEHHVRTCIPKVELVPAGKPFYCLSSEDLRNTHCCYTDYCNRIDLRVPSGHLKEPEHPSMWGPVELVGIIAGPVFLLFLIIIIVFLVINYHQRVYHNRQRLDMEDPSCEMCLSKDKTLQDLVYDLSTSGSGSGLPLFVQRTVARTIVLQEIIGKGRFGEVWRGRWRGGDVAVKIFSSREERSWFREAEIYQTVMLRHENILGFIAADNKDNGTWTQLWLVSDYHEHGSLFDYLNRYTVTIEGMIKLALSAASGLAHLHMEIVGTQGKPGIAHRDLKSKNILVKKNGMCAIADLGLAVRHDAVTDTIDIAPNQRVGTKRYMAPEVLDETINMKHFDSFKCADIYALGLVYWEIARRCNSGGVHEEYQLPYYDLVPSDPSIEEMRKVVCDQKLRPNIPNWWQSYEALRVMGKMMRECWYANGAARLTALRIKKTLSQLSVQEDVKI
Data set [21] in a line: Mutagenicity in Salmonella typhimurium TA100 by Ames test. The format is toxicity. Conditions: salmonella enterica subsp. enterica serovar typhimurium. A general note: In the Ames test, an excess of revertant colonies over the control signals mutagenicity.

Activity calls are given as the source filed them. No cut-off for these calls is given here. Some results are limits rather than exact numbers.

In general, clearance refers to the rate of elimination divided by the concentration. High values mean efficient removal, low ones inefficient removal. A word on the bioavailability: it is dose-corrected exposure relative to a reference, in per cent. Higher therefore signals good availability. By half-life is commonly meant the time in which the quantity being followed falls by half. For orientation: Tmax means the time from dosing to the highest level. As for `Cc1cccc(-c2nn3c(c2-c2ccc4ncnn4c2/C=C/C(N)=O)CCC3)n1`, the clearance in data set [1] worked out at 63.3 mL/min/kg. In addition, the AUClast in [2] is recorded as 285 nM.hr/ml; in [7] it was 5626 nM.hr/ml; in data set [8] it was 18284 nM.hr/ml. Also, the CLint scaled at […], 1 µM in data set [3] is under 6.9 mL/min/kg. Besides, the fraction unbound at 4 h, up to 10 µM in data set [4] was 0.556. Moreover, the bioavailability came to 29.9% in [5] and 65.5% in data set [9]. In data set [6], this compound showed a half-life of 3.16 h. In addition, the Activity entry in [10] was “Non-toxic”; in data set [20], under 50%; in data set [21], “Non-toxic”. Moreover, the time of peak concentration (Tmax) in [11] amounted to 1 h. In addition, the results for the inhibition result in [12] and in [17] were “Active; Observed A Significant Decline In Phosphorylated Smad3 Protein At 1 H But Nearly Absent At […] Hrs” and “Dose-dependent-effect”, respectively. In addition, the outcome in data set [13], in [15] and in [16] was Active. In data set [14], the result was inactive. Further, the Drug metabolism entry in data set [18] and in [19] was “metabolite_detected” throughout.
